From patent US11427615B2, “Peptide compound and application thereof, and composition containing peptide compound” (XDCEXPLORER (SHANGHAI) CO., LTD., priority 2017, dated 2022)
Where “and” joins values, the source holds several entries; their conditions need not be identical. Equal entries are not always repeated. Starred links: 1 amine or outer side, 2 acyl side, 3 side chain; linkers in the order of their positions; H or OH if unused. Non-standard residues stand in square brackets, D forms with d. Residues, ends and D or L forms follow the SMILES beside them. *: point of attachment. X10 = CNC(=N)NCCC[C@H](NC(=O)[C@H](CC(C)C)NC(=O)NCN*)C(=O)N[C@@H](Cc1c[nH]c2ccccc12)C(N)=O; X6 = O=C([C@H](Cc1ccc(-n2cccn2)cc1)N[*:1])[*:2]; dPhe(2,4-Cl2) = N[C@H](Cc1ccc(Cl)cc1Cl)C(=O)O; X7 = c1ccc2c(C[C@H](N*)c3nn[nH]n3)c[nH]c2c1; Pro(4,4-F2) = O=C(O)[C@@H]1CC(F)(F)CN1; dPhe(4-F) = N[C@H](Cc1ccc(F)cc1)C(=O)O; azaPhe = O=C(N(Cc1ccccc1)N[*:1])[*:2]; Arg(Me) = CNC(=N)NCCC[C@H](N)C(=O)O; Hyp = O=C(O)[C@@H]1C[C@@H](O)CN1; X15 = CN(NC(=O)[*:2])[*:1]; Pip = O=C(O)[C@@H]1CCCCN1; Ac6c = NC1(C(=O)O)CCCCC1; azaGly = NNC(=O)O

target: T1, human kiss1 receptor (GPR54) (Homo sapiens, UniProt Q969F8); assay: Kiss1 receptor (GPR54) binding activity of agonists, FRET detection in NFAT-bla CHO-K1 cells; type: cell-based; settings: NFAT-bla CHO-K1 cells that express human kiss1 receptor (GPR54); FRET; cells cultured with compound for 4 hours; read-out: GPR54 EC50/nM
T1 construct: host or cells: NFAT-bla CHO-K1 cells (Chinese hamster ovary), purchased recombinant cell line
T1 sequence (Q969F8 whole entry): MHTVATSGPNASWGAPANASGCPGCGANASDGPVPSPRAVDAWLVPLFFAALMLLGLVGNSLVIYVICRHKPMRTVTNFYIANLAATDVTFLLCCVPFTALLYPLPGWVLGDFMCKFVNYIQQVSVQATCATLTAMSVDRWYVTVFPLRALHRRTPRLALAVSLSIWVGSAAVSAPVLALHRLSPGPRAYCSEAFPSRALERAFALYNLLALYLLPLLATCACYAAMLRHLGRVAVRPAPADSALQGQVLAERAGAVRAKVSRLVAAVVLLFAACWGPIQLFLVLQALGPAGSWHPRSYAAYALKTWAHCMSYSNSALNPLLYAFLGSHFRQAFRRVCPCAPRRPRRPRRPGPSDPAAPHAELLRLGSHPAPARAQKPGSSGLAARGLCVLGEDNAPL

Going from CC(=O)N[C@H](Cc1ccc(Cl)cc1Cl)C(=O)N1CCCC[C@H]1C(=O)N[C@@H](CC(N)=O)C(=O)N[C@H](C(=O)N[C@@H](Cc1ccccc1)C(=O)NNC(=O)N[C@@H](CC(C)C)C(=O)N[C@@H](Cc1ccc(-n2cccn2)cc1)C(=O)N[C@@H](Cc1c[nH]c2ccccc12)C(N)=O)[C@@H](C)O [YA-242, Ac-[D-Phe(2,4-diCl)]—(S-Pip)-Asn-Thr-Phe-azaGly-Leu-Phe(4-Pyrazol)-Trp-NH2] (Ac-[dPhe(2,4-Cl2)][Pip]NTF[azaGly]L[X6]W-NH2) to CNC(=N)NCCC[C@H](NC(=O)[C@H](CC(C)C)NC(=O)C1(NC(=O)[C@H](Cc2ccccc2)NC(=O)[C@@H](NC(=O)[C@H](CC(N)=O)NC(=O)C2(NC(=O)[C@@H](Cc3ccc(O)cc3)NC(C)=O)CCCCC2)[C@@H](C)O)CCCCC1)C(=O)N[C@@H](Cc1c[nH]c2ccccc12)C(N)=O [YA-243, Ac-D-Tyr-A6c-Asn-Thr-Phe-A6c-Leu-Arg(Me)-Trp-NH2] (Ac-[dY][Ac6c]NTF[Ac6c]L[Arg(Me)]W-NH2), the EC50 falls from 3.75 nM to 0.69 nM (5.4-fold). The second is the more potent here.

same assay, conditions: Preliminary measurement data (GPR54) EC50, nM), GPR54; measured according to the method of effect Embodiment 1; preliminary data

Work on CNC(=N)NCCC[C@H](NC(=O)[C@H](CC(C)C)NC(=O)CNC(=O)N(Cc1ccccc1)NC(=O)[C@@H](NC(=O)[C@H](CC(N)=O)NC(=O)[C@@H]1CCCCN1C(=O)[C@@H](Cc1ccc(Cl)cc1Cl)NC(C)=O)[C@@H](C)O)C(=O)N[C@@H](Cc1c[nH]c2ccccc12)C(N)=O [YA-241, Ac-[D-Phe(2,4-diCl)]—(S-Pip)-Asn-Thr-azaPhe-Gly-Leu-Arg(Me)-Trp-NH2] (Ac-[dPhe(2,4-Cl2)][Pip]NT[azaPhe]GL[Arg(Me)]W-NH2) yielded an EC50 of 0.93 nM.

same assay, conditions: human kiss1 receptor (GPR54), NFAT-bla CHO-K1 cells, FRET; preliminary data; method of effect Embodiment 1; read-out: Preliminary measurement data (GPR54) EC50

CC(=O)N[C@H](Cc1ccc(Cl)cc1Cl)C(=O)N1CCCC[C@H]1C(=O)N[C@@H](CC(N)=O)C(=O)N[C@H](C(=O)N[C@@H](Cc1ccccc1)C(=O)NNC(=O)N[C@@H](CC(C)C)C(=O)N[C@@H](Cc1ccc(-n2cccn2)cc1)C(=O)N[C@@H](Cc1c[nH]c2ccccc12)C(N)=O)[C@@H](C)O [YA-242, Ac-[D-Phe(2,4-diCl)]—(S-Pip)-Asn-Thr-Phe-azaGly-Leu-Phe(4-Pyrazol)-Trp-NH2] (Ac-[dPhe(2,4-Cl2)][Pip]NTF[azaGly]L[X6]W-NH2) and CNC(=N)NCCC[C@H](NC(=O)[C@H](CC(C)C)NC(=O)NNC(=O)[C@H](Cc1ccccc1)NC(=O)[C@@H](NC(=O)[C@H](CC(N)=O)NC(=O)[C@@H]1C[C@@H](O)CN1C(=O)[C@@H](Cc1ccc(O)cc1)NC(C)=O)[C@@H](C)O)C(=O)N[C@@H](Cc1c[nH]c2ccccc12)C(=O)O [YA-246, Ac-(D-Tyr)-Hyp-Asn-Thr-Phe-azaGly-Leu-Arg(Me)-Trp-OH] (Ac-[dY][Hyp]NTF[azaGly]L[Arg(Me)]W-OH) are within 1.5-fold of each other in EC50: 3.74 nM for the first, 2.86 nM for the second.

First: CNC(=N)NCCC[C@H](NC(=O)[C@H](CC(C)C)NC(=O)C1(NC(=O)[C@H](Cc2ccccc2)NC(=O)[C@@H](NC(=O)[C@H](CC(N)=O)NC(=O)C2(NC(=O)[C@@H](Cc3ccc(F)cc3)NC(C)=O)CCCCC2)[C@@H](C)O)CCCCC1)C(=O)N[C@@H](Cc1c[nH]c2ccccc12)C(N)=O [YA-244, Ac-[D-Phe(4-F)]-A6c-Asn-Thr-Phe-A6c-Leu-Arg(Me)-Trp-NH2] (Ac-[dPhe(4-F)][Ac6c]NTF[Ac6c]L[Arg(Me)]W-NH2; C-terminus assumed)
Second: CNC(=N)NCCC[C@H](NC(=O)[C@H](CC(C)C)NC(=O)[C@@H]1C[C@@H](O)CN1C(=O)[C@H](Cc1ccccc1)NC(=O)[C@@H](NC(=O)[C@H](CC(N)=O)NC(=O)C1(NC(=O)[C@@H](Cc2ccc(O)cc2)NC(C)=O)CCCCC1)[C@@H](C)O)C(=O)N[C@@H](Cc1c[nH]c2ccccc12)C(N)=O [YA-245, Ac-(D-Tyr)-A6c-Asn-Thr-Phe-Hyp-Leu-Arg(Me)-Trp-NH2] (Ac-[dY][Ac6c]NTF[Hyp]L[Arg(Me)]W-NH2)
The EC50 of the first is 22-fold lower: 1.17 nM for the first, 26 nM for the second.

First: CNC(=N)NCCC[C@H](NC(=O)[C@H](CC(C)C)NC(=O)NN(C)C(=O)[C@H](Cc1ccccc1)NC(=O)[C@@H](NC(=O)[C@H](CC(N)=O)NC(=O)[C@@H]1C[C@@H](O)CN1C(=O)[C@@H](Cc1ccc(O)cc1)NC(C)=O)[C@@H](C)O)C(=O)N[C@@H](Cc1c[nH]c2ccccc12)C(N)=O [YA-247, Ac-(D-Tyr)-Hyp-Asn-Thr-Phe-azaNMeGly-Leu-Arg(Me)-Trp-NH2] (Ac-[dY][Hyp]NTF[X15]L[Arg(Me)]W-NH2)
Second: CNC(=N)NCCC[C@H](NC(=O)[C@H](CC(C)C)NC(=O)NCNC(=O)[C@H](Cc1ccccc1)NC(=O)[C@@H](NC(=O)[C@H](CC(N)=O)NC(=O)[C@@H]1C[C@@H](O)CN1C(=O)[C@@H](Cc1ccc(O)cc1)NC(C)=O)[C@@H](C)O)C(=O)N[C@@H](Cc1c[nH]c2ccccc12)C(N)=O [YA-256, Ac-(D-Tyr)-Hyp-Asn-Thr-Phe-ψ(NH—CO—NH)Gly-Leu-Arg(Me)-Trp-NH2] (Ac-[dY][Hyp]NTF-X10)
The EC50 of the first is 4.2-fold higher: 11 nM for the first, 2.6 nM for the second. The second is the more potent here.

In the case of CNC(=N)NCCC[C@H](NC(=O)[C@H](CC(C)C)NC(=O)C1(NC(=O)[C@H](Cc2ccccc2)NC(=O)[C@@H](NC(=O)[C@H](CC(N)=O)NC(=O)[C@@H]2CC(F)(F)CN2C(=O)[C@@H](Cc2ccc(Cl)cc2Cl)NC(C)=O)[C@@H](C)O)CCCCC1)C(=O)N[C@@H](Cc1c[nH]c2ccccc12)C(=O)NC [YA-253, Ac-D-Phe(2,4-DiCl)-DiFluorPro-Asn-Thr-Phe-A6c-Leu-Arg(Me)-Trp-NHMe] (Ac-[dPhe(2,4-Cl2)][Pro(4,4-F2)]NTF[Ac6c]L[Arg(Me)]W-NHMe), the EC50 is reported as 97.8 nM.

CNC(=N)NCCC[C@H](NC(=O)[C@H](CC(C)C)NC(=O)NNC(=O)[C@H](Cc1ccccc1)NC(=O)[C@@H](NC(=O)[C@H](CC(N)=O)NC(=O)[C@@H]1C[C@@H](O)CN1C(=O)[C@@H](Cc1ccc(O)cc1)NC(C)=O)[C@@H](C)O)C(=O)N[C@@H](Cc1c[nH]c2ccccc12)c1nn[nH]n1 [YA-250, Ac-(D-Tyr)-Hyp-Asn-Thr-Phe-azaG-Leu-Arg(Me)-Trp-2H-tetrazol-5-yl] (Ac-[dY][Hyp]NTF[azaGly]L[Arg(Me)]-X7) was tested, and the EC50 was 7.5 nM and 15.4 nM.
